# Experimental data published in ChEMBL document CHEMBL4418299, “Compounds useful as csf1 modulators” (2016).
# Molecular target: Macrophage colony-stimulating factor 1 receptor (Homo sapiens, UniProt P07333)
# Experiment: Displacement of kinase tracer 236 from recombinant human His-tagged CSF1R cytoplasmic domain (538 to 910 residues) expressed in baculovirus-infected insect cells measured after 5 hrs by TR-FRET based LanthaScreen assay
# Sequence of Macrophage colony-stimulating factor 1 receptor (P07333 whole entry, the tested form may be a part): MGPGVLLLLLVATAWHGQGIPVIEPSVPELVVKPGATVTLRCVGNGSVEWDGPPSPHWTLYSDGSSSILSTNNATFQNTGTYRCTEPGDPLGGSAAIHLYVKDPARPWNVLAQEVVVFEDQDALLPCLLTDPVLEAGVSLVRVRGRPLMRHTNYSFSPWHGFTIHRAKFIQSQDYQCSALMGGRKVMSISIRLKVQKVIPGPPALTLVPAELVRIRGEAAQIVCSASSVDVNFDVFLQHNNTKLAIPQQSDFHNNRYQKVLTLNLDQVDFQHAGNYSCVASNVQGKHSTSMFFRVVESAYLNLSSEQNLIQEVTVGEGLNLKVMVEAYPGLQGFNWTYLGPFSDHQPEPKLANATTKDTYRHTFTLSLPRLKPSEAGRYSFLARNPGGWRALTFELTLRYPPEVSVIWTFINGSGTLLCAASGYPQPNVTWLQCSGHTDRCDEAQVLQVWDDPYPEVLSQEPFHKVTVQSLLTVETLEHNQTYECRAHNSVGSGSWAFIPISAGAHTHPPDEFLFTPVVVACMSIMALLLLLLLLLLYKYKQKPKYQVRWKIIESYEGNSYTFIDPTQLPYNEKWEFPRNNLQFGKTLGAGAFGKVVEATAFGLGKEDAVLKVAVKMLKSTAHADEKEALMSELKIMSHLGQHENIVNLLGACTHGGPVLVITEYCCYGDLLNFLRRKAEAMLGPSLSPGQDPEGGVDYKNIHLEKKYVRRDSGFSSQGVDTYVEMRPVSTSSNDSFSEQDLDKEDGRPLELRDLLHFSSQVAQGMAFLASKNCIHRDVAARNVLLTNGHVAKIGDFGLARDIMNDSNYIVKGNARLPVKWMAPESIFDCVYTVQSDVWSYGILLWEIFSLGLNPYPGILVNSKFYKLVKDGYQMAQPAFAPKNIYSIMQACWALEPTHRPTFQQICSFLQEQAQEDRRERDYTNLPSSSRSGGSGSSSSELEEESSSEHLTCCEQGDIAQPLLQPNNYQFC
row,IC50 [nM],SMILES
1,< 10,Nc1ncnc2c3c(n(-c4ccc(NC(=O)Cn5cnc(C(F)(F)F)c5)cc4)c12)COC3
2,10 to 200,COc1ccc(CC(=O)Nc2ccc(-n3c4c(c5ncnc(N)c53)COC4)cc2)c(F)c1
3,< 10,COc1cc(-n2c3c(c4ncnc(N)c42)CCC3)ccc1NC(=O)Cn1cc(C)cn1
4,< 10,Nc1ncnc2c3c(n(-c4ccc(NC(=O)Cn5ccc(C(F)(F)F)n5)cc4)c12)CCC3
5,10 to 200,COc1cc(-n2c3c(c4ncnc(N)c42)COC3)ccc1NC(=O)Cn1cnc(C(F)(F)F)c1
6,10 to 200,COc1cc(-n2c3c(c4ncnc(N)c42)CCC3)ccc1NC(=O)Cc1cnn(C)c1
7,10 to 200,Nc1ncnc2c3c(n(-c4ccc(NC(=O)Cc5cc(C(F)(F)F)ccc5Cl)cc4)c12)CCC3
8,> 200,Nc1ncnc2c3c(n(-c4ccc(NC(=O)C(F)c5ccccc5)cc4)c12)CCC3 (stereo unspecified)
9,> 200,Nc1ncnc2c3c(n(-c4ccc(NC(=O)Cc5ccn(C(F)F)n5)cc4)c12)COC3
10,< 10,Nc1ncnc2c3c(n(-c4ccc(NC(=O)Cc5ccccc5)cc4)c12)COC3
11,10 to 200,Nc1ncnc2c3c(n(-c4ccc(NC(=O)Cc5ccnc(C(F)(F)F)c5)cc4)c12)COC3
12,> 200,COc1ccc(NC(=O)Cc2ccc(-n3c4c(c5ncnc(N)c53)CCC4)cc2)nn1
13,10 to 200,COc1cc(-n2c3c(c4ncnc(N)c42)CCC3)ccc1CC(=O)Nc1ccc(C(C)(C)O)cn1
14,10 to 200,CC(C)c1noc(CC(=O)Nc2ccc(-n3c4c(c5ncnc(N)c53)CCC4)cc2)n1
15,< 10,COc1cc(-n2c3c(c4ncnc(N)c42)CCC3)ccc1NC(=O)Cc1cc(C(F)(F)F)on1
16,< 10,COc1cc(-n2c3c(c4ncnc(N)c42)CCC3)ccc1NC(=O)Cn1ccc(C(F)(F)F)n1
17,10 to 200,COc1ccc(CC(=O)Nc2ccc(-n3c4c(c5ncnc(N)c53)COC4)cc2OC)c(F)c1
18,10 to 200,Nc1ncnc2c3c(n(-c4ccc(NC(=O)Cc5coc(-c6ccccc6)n5)cc4)c12)CCC3
19,< 10,COc1ncc(NC(=O)Cc2ccc(-n3c4c(c5ncnc(N)c53)CCC4)cc2)cc1F
20,> 200,Cn1ccc(CC(=O)Nc2ccc(-n3c4c(c5ncnc(N)c53)CCC4)cc2)n1
21,10 to 200,Nc1ncnc2c3c(n(-c4ccc(NC(=O)Cc5cccnc5)cc4)c12)CCC3
22,< 10,Nc1ncnc2c3c(n(-c4ccc(NC(=O)Cn5cc(C(F)(F)F)cn5)cc4)c12)CCC3
23,10 to 200,COc1cc(-n2c3c(c4ncnc(N)c42)CCC3)ccc1NC(=O)Cc1ccc(C(C)(C)C)cc1
24,> 200,COc1cc(-n2c3c(c4ncnc(N)c42)CCC3)ccc1CC(=O)Nc1ccnn1C
25,< 10,CC(C)(C)c1cnn(CC(=O)Nc2ccc(-n3c4c(c5ncnc(N)c53)CCC4)cc2)c1

row,IC50 [nM],SMILES
1,10 to 200,Nc1ncnc2c3c(n(-c4ccc(CC(=O)NCc5ccccc5)cc4)c12)CCC3
2,< 10,COc1cc(-n2c3c(c4ncnc(N)c42)CCC3)ccc1CC(=O)Nc1cc(C)ccc1F
3,10 to 200,COc1cc(-n2c3c(c4ncnc(N)c42)CCC3)ccc1NC(=O)Cc1coc(-c2ccccc2)n1
4,> 200,COc1cc(-n2c3c(c4ncnc(N)c42)CCC3)ccc1NC(=O)Cc1ccn(C)n1
5,< 10,COc1cc(-n2c3c(c4ncnc(N)c42)CCC3)ccc1NC(=O)Cc1ccc(C)cc1F
6,10 to 200,Nc1ncnc2c3c(n(-c4ccc(NC(=O)Cc5cc(C(F)F)on5)cc4)c12)CCC3
7,< 10,COc1cc(-n2c3c(c4ncnc(N)c42)CCC3)ccc1CC(=O)Nc1cnc(OC)c(F)c1
8,> 200,COc1cc(-n2c3c(c4ncnc(N)c42)COC3)ccc1NC(=O)Cc1nccc(C(F)(F)F)n1
9,10 to 200,Nc1ncnc2c3c(n(-c4ccc(NC(=O)Cn5ccc(C(F)(F)F)n5)cc4)c12)COC3
10,10 to 200,COc1cc(-n2c3c(c4ncnc(N)c42)COC3)ccc1NC(=O)Cc1cc(C(F)(F)F)on1
11,< 10,CC(C)(C)c1cnn(CC(=O)Nc2ccc(-n3c4c(c5ncnc(N)c53)COC4)cc2)c1
12,> 200,COc1cc(-n2c3c(c4ncnc(N)c42)CCC3)ccc1NC(=O)Cc1nnccc1C(F)(F)F
13,10 to 200,COc1cc(-n2c3c(c4ncnc(N)c42)CCC3)ccc1NC(=O)CN1CCOc2ccccc21
14,10 to 200,COc1cc(-n2c3c(c4ncnc(N)c42)CCC3)ccc1CC(=O)Nc1cnn(C(F)F)c1
15,< 10,COc1cc(-n2c3c(c4ncnc(N)c42)CCC3)ccc1NC(=O)Cc1cnn(C(F)F)c1
16,10 to 200,CC(C)(C)c1ccn(CC(=O)Nc2ccc(-n3c4c(c5ncnc(N)c53)COC4)cc2)n1
17,10 to 200,CN(C)c1cc(CC(=O)Nc2ccc(-n3c4c(c5ncnc(N)c53)CCC4)cc2)ccc1C(F)(F)F
18,> 200,COc1cc(-n2c3c(c4ncnc(N)c42)COC3)ccc1NC(=O)Cc1ccnc(C(F)(F)F)n1
19,< 10,COc1cc(-n2c3c(c4ncnc(N)c42)CCC3)ccc1NC(=O)Cc1coc(C(C)C)n1
20,10 to 200,COc1cc(-n2c3c(c4ncnc(N)c42)COC3)ccc1NC(=O)Cc1cc(C)ccc1F
21,10 to 200,COc1cc(-n2c3c(c4ncnc(N)c42)CCC3)ccc1NC(=O)CN1CCCc2cc(F)ccc21
22,10 to 200,COc1cccc(CC(=O)Nc2ccc(-n3c4c(c5ncnc(N)c53)CCC4)cc2OC)n1
23,< 10,COc1cc(-n2c3c(c4ncnc(N)c42)CCC3)ccc1NC(=O)Cc1ccnc(C(F)(F)F)c1
24,10 to 200,COc1ccc(CC(=O)Nc2ccc(-n3c4c(c5ncnc(N)c53)CCC4)cc2OC)cn1
25,< 10,COc1cc(-n2c3c(c4ncnc(N)c42)CCC3)ccc1NC(=O)Cc1cnn(C)c1C(F)(F)F

# More lines, now with the values behind:
row,SMILES,IC50 [nM]
1,COc1ccccc1CC(=O)Nc1ccc(-n2c3c(c4ncnc(N)c42)CCC3)cc1,< 10
2,COc1cc(-n2c3c(c4ncnc(N)c42)CCC3)ccc1NC(=O)Cc1cc(C(F)(F)F)nn1C,10 to 200
3,CC(C)c1ccn(CC(=O)Nc2ccc(-n3c4c(c5ncnc(N)c53)CCC4)cc2)n1,< 10
4,Nc1ncnc2c3c(n(-c4ccc(NC(=O)Cc5cc(C(F)(F)F)ccc5F)c(C(F)(F)F)c4)c12)CCC3,> 200
5,COc1cc(-n2c3c(c4ncnc(N)c42)COC3)ccc1NC(=O)Cc1ccc(OC)c(C(F)(F)F)c1,< 10
6,COc1cc(-n2c3c(c4ncnc(N)c42)CCC3)ccc1CC(=O)Nc1ccc(C(F)(F)F)nc1,< 10
7,COc1cc(-n2c3c(c4ncnc(N)c42)CCC3)ccc1NC(=O)Cc1c(C)noc1C,> 200
8,Nc1ncnc2c3c(n(-c4ccc(NC(=O)Cc5ccn(C(F)F)n5)cc4)c12)CCC3,10 to 200
9,COc1cc(-n2c3c(c4ncnc(N)c42)CCC3)ccc1CC(=O)Nc1ccc(C2(O)COC2)cc1,10 to 200
10,COc1cc(-n2c3c(c4ncnc(N)c42)CCC3)ccc1NC(=O)Cn1cc(C(F)(F)F)cn1,< 10
11,COc1cc(-n2c3c(c4ncnc(N)c42)CCC3)ccc1NC(=O)Cc1ccc(C2(O)COC2)cc1,< 10
12,COc1cc(-n2c3c(c4ncnc(N)c42)CCC3)ccc1CC(=O)Nc1cc(C(F)(F)F)cnn1,< 10
13,N#Cc1ccc(CC(=O)Nc2ccc(-n3c4c(c5ncnc(N)c53)CCC4)cc2)cc1,< 10
14,COc1cc(-n2c3c(c4ncnc(N)c42)CCC3)ccc1NC(=O)Cc1ccc(C(=O)N(C)C)cc1,10 to 200
15,COc1cc(-n2c3c(c4ncnc(N)c42)CCC3)ccc1NC(=O)Cc1cc(C(F)(F)F)cnn1,10 to 200
16,COc1cc(-n2c3c(c4ncnc(N)c42)CCC3)ccc1CC(=O)N1CCOc2ccccc21,< 10
17,COc1cc(-n2c3c(c4ncnc(N)c42)CCC3)ccc1NC(=O)Cc1ccnc(C(F)(F)F)n1,10 to 200
18,COc1ccc(CC(=O)Nc2ccc(-n3c4c(c5ncnc(N)c53)COC4)cc2)cc1F,14
19,CC(=O)N1CCC(CC(=O)Nc2ccc(-n3c4c(c5ncnc(N)c53)CCC4)cc2)CC1,> 200
20,COc1cc(-n2c3c(c4ncnc(N)c42)COC3)ccc1NC(=O)Cc1ccnc(C(F)(F)F)c1,50
21,COc1cc(-n2c3c(c4ncnc(N)c42)COC3)ccc1NC(=O)Cc1cnn(C)c1C(F)(F)F,> 200

row,SMILES,IC50 [nM]
1,COc1cc(-n2c3c(c4ncnc(N)c42)CCC3)ccc1CC(=O)Nc1cnn(C)c1,> 200
2,COc1cc(-n2c3c(c4ncnc(N)c42)CCC3)ccc1NC(=O)Cc1ccn(C(F)F)n1,< 10
3,Nc1ncnc2c3c(n(-c4ccc(NC(=O)Cc5ccc(O)cc5)cc4)c12)CCC3,29
4,COc1cc(-n2c3c(c4ncnc(N)c42)CCC3)ccc1NC(=O)Cn1ccc(C(C)(C)C)n1,< 10
5,COc1cc(-n2c3c(c4ncnc(N)c42)CCC3)ccc1CC(=O)Nc1ccccc1,10 to 200
6,Nc1ncnc2c3c(n(-c4ccc(NC(=O)Cc5ccc(C(F)(F)F)nc5)cc4)c12)COC3,10 to 200
7,COc1cc(-n2c3c(c4ncnc(N)c42)CCC3)ccc1CC(=O)Nc1ccc(C(C)(C)C)cc1,< 10
8,COc1cc(-n2c3c(c4ncnc(N)c42)COC3)ccc1NC(=O)Cn1ccc(C(F)(F)F)n1,10 to 200
9,COc1cc(-n2c3c(c4ncnc(N)c42)CCC3)ccc1CC(=O)Nc1ccc(C(C)(C)OC)nc1,< 10
10,COc1cc(-n2c3c(c4ncnc(N)c42)CCC3)ccc1NC(=O)Cn1cnc(C(F)(F)F)c1,10 to 200
11,Nc1ncnc2c3c(n(-c4ccc(NC(=O)Cc5c(F)cc(Cl)cc5F)cc4)c12)CCC3,10 to 200
12,Nc1ncnc2c3c(n(-c4ccc(CC(=O)Nc5cnc(C(F)(F)F)nc5)cc4)c12)CCC3,10 to 200
13,COc1cc(-n2c3c(c4ncnc(N)c42)CCC3)ccc1CC(=O)Nc1ccc(C(C)(C)O)nc1,< 10
14,Nc1ncnc2c3c(n(-c4ccc(NC(=O)CC5CCN(C(=O)OCc6ccccc6)CC5)cc4)c12)CCC3,10 to 200
15,NC(=O)c1ccc(CC(=O)Nc2ccc(-n3c4c(c5ncnc(N)c53)CCC4)cc2)cc1C(F)(F)F,10 to 200
16,COc1cc(-n2c3c(c4ncnc(N)c42)COC3)ccc1NC(=O)Cc1ccc(C(F)(F)F)nc1,10 to 200
17,COc1cc(CC(=O)Nc2ccc(-n3c4c(c5ncnc(N)c53)CCC4)cc2OC)cc(OC)c1,< 10
18,Nc1ncnc2c3c(n(-c4ccc(NC(=O)CN5CCCC5)cc4)c12)CCC3,> 200
19,COc1cc(-n2c3c(c4ncnc(N)c42)COC3)ccc1NC(=O)Cc1cccc(OC)c1C,< 10
20,COc1cc(-n2c3c(c4ncnc(N)c42)CCC3)ccc1NC(=O)Cc1csc(C(C)C)n1,< 10
